Values after ≈ are worked out from the molar mass of the structure shown. Where two headings read alike, the source gives them in different places.
How the values were obtained:
[1] = tested on: yellow fever mosquito Aedes aegyptii; conditions: cited from earlier work
[2] = tested on: newly hatched variegated cutworm (peridroma saucia, Noctuidae); assay: Chronic larval growth bioassay; assay type: in vivo; conditions: 10 days at 26° C.; for activity at 20 ppm: Peridroma saucia, 240 h; for activity at 20 ppm / Larval growth, % of control / Larval survival, % of control: newly hatched larvae (n=20), 20 ppm
Method: Chromic larveal growth bioassay % of control given in parenthesis. […] These bioassays were carried out according to the procedure described earlier (M. B. Isman, O. Koul, A. Luczynski and J. Kaminski, J. Agric. Food Chem. 38, 1406 (1990). These tests were performed by Prof. M. B. Isman and colleagues at University of British Columbia, Vancouver, Canada.

[3] = tested on: certain human tumor cell lines; conditions: values as low as; cited from earlier work
colon cell line (H-29) = conditions: cited from earlier work
lung cell line (A-549) = conditions: cited from earlier work
[4] = tested on: oriental armyworm (Mythimna separata WLK) larvae; assay: Insect antifeedant bioassay on sorghum leaf discs; assay type: in vivo; conditions: for mortality: first and third instar larvae, concentration of 0.05% (MeOH) at 27°, untreated control 7% mortality; for Damage rating: 0.05% in methanol, visual scale 1 to 9 (1=<10%, 9=>80% leaf area consumed)
Method: The sample solutions (10 μl of a 0.05% solution) were applied evenly to the lower surface of leaf discs (5 cm^2) cut from sorghum hybrid variety CSH5 and the discs were allowed to dry on filter papers. After drying the leaf, discs were offered to 10 first instar M. separata larvae in plastic cups or to one third instar larva in 9-cm (diameter) plastic petric dishes. All larvae were starved for 2 h before the test and the leaf and the leaf discs were kept on moisture filter papers to keep them turgid. The larvae were confined to leaf discs for 24 h and during the period the larvae scratched or consumed >80% of the leaf disc area in the untreated controls. The leaf discs were rated visually for the extent of feeding on a scale upto 1 to 9 (1=<10%, 2=11 to 20%, 3=21 to 30%, 4=31 to 40%, 5=41 to 7=61 to 70%, 8=71 to 80%, 9=>80% leaf area scratched consumed). The larvae were then stirred for 12 h and weighed. Isosquamocin was evaluated by this procedure and the results have shown that it drastically. The feeding of the leaves of sorghum hybrid variety CSH 5 at a concentration of 0.05% in methanol) in comparison with control (methanol) against the first instar and third instar larvae of oriental armyworm (Mythimna separata WLK). It is very toxic to first instar larvae causing high larval mortality and the results are presented below: […]

[5] = tested on: Southern Corn rootworm (SCRW); assay: Evaluation screen (EVAL) for insecticidal activity; assay type: in vivo; conditions: 250 ppm
[6] = tested on: Two spotted spidermite (TSSM); assay: Evaluation screen (EVAL) for insecticidal activity; assay type: in vivo; conditions: 250 ppm
Excerpt: (§1) Two spotted spidermite, green peach aphid (GPA) and corn plant hopper (GPH) when they were subjected evaluation screen (Eval) and evaluation screen delayed toxicity test EVDT for the insecticidal activity and results are summarized below: […]

[7] = tested on: Two spotted spidermite (TSSM); assay: Evaluation screen delayed toxicity test (EVADT); assay type: in vivo; conditions: 250 ppm
Excerpt: as §1

corn plant hopper (CP-H) = assay: Evaluation screen delayed toxicity test (EVADT); assay type: in vivo; conditions: 250 ppm
Excerpt: as §1

green peach aphid (GPA) = assay: Evaluation screen delayed toxicity test (EVADT); assay type: in vivo; conditions: 250 ppm
Excerpt: as §1

L-5178 Y = conditions: in vitro cytotoxic activity against L-5178 Y; cited from earlier work
southern corn rootworm = conditions: in vivo; cited from earlier work
two sported spider mite = conditions: in vivo; cited from earlier work
cotton aphid = conditions: in vivo; cited from earlier work
[8] = Solubility of the waxy substance; assay type: physicochemical
[9] = First instar larvae, 0.05% in methanol on leaf discs, 24 h

Molecule: CCCCCCCCCCCCC(O)C1CCC(C(O)CCCCC(O)CCCCCC(O)CC2=CC(C)OC2=O)O1 (stereo not drawn) [annonacin A, reference compound]
- LC 50 [1]: 10.8 mg/lit^−1

Molecule: CCCCCCCCCC[C@H](O)[C@H]1CC[C@H]([C@H](O)CC[C@H](O)[C@@H]2CC[C@@H](CCCCCCC[C@@H](O)CC3=C[C@H](C)OC3=O)O2)O1 [bullatalicin, bullatalicin/squamostatin-B]
- activity at 20 ppm ([2]; read-out: Larval growth, % of control): 135%
- activity at 20 ppm ([2]; read-out: Larval survival, % of control): 100%
- ED50 [3]: ≥ 10^−7 ug/ml
- times more toxic than adriamycin (colon cell line (H-29)): about 10,000 times
- times more toxic than adriamycin (lung cell line (A-549)): about 10,000 times
- LC 50 [1]: 9 mg/lit^−1

Molecule: CCCCCCCCCC[C@H](O)[C@H]1CC[C@H]([C@H]2CC[C@H]([C@H](O)CCCCCCCCCC[C@@H](O)CC3=C[C@H](C)OC3=O)O2)O1 [squamocin-G]
- Larval growth, % of control [2]: 34%
- Larval survival, % of control [2]: 45%
- EC 50 ([2]; chronic larval growth bioassay): 5.65 ppm
- LC 50 ([2]; chronic larval growth bioassay): 12 ppm
- mortality [4]: 70%
- SCRW [5]: 100
- TSSM [6]: L8 (Less than 80% mortality)
- TSSM [7]: L9 (Less than 90% reduction in population)
- CP-H (corn plant hopper (CP-H)): G8 (Greater than 80% reduction in population)
- GPA (green peach aphid (GPA)): L8 (Less than 80% mortality)

Molecule: CCCCCC[C@@H](O)CCC[C@H](O)[C@@H]1CC[C@@H]([C@H](O)CC[C@@H](O)[C@@H]2CC[C@@H](CCCCCCCCCC3=C[C@@H](C)OC3=O)O2)O1 [squamostatin-A]
- Larval growth, % of control [2]: 138%
- Larval survival, % of control [2]: 100%
- IC50 (L-5178 Y): 0.5 µg/mL (≈ 0.783 µM)

Molecule: bullatacin
- insecticidal concentration, southern corn rootworm (southern corn rootworm): 24 ppm
- insecticidal concentration, two sported spider mite (two sported spider mite): 10 ppm
- insecticidal concentration, cotton aphid (cotton aphid): 1 ppm

Molecule: bullatanocin/squamostatin-C/Annonin-V/Cherimolin-II
- times more toxic than adriamycin (colon cell line (H-29)): about 10,000 times
- times more toxic than adriamycin (lung cell line (A-549)): about 10,000 times

Molecule: isosquamocin
- Larval growth, % of control [2]: 20%
- Larval survival, % of control [2]: 55%
- Larval Survival (%) [4, 9]: 10.4%
- Mean larval mass [4, 9]: 0.2 mg
- Damage rating ([4]; First instar larvae): 1.3
- Mean larval mass ([4]; Third instar larvae, 0.05% in methanol on leaf discs, 24 h): 15.7 mg
- Damage rating ([4]; Third instar larvae): 1.0
- mortality [4]: 70%
- SCRW [5]: 100
- TSSM [6]: L8 (Less than 80% mortality)
- TSSM [7]: L9 (Less than 90% reduction in population)
- CP-H (corn plant hopper (CP-H)): G8 (Greater than 80% reduction in population)
- Solubility in ether, chloroform, dichloromethane, acetone, methanol and ethyl acetate [8]: readily soluble
- Solubility in petroleum ether/hexane and water [8]: insoluble or very sparingly soluble
